Entries after “also recorded” stand apart in the source; their conditions may differ. Where no end group is shown, it is not given here.
Legend:
[1] = test system: mesenchymal stem cell (MSC); assay: Cell penetration of FITC-labelled peptide by concentration, FACS fluorescence intensity (FIG. 1); format: cell-based, human; details: 1 hour
Description: FIG. 1 is a graph showing that a cell membrane penetration efficiency of Ara-27 cell-penetrating peptide is increased in proportion to a concentration in mesenchymal stem cell (MSC) derived from a human body. In the graph, a Y axis represents a fluorescence intensity, which is an index indicating an amount of introduced peptides per unit cell.
(§1) In order to confirm the cell penetration efficiency of each cell-penetrating peptide, fluorescein isothiocyanate (FITC, fluorescent material), which fluoresces each peptide, was adhered to each peptide, then penetration efficiencies thereof were examined.
When measuring the cell penetration efficiency, in order to remove each cell-penetrating peptide which may be adhered to the cell membrane surface, a Heparin & Trypsin washing method used in the Kaplan group was applied thereto [Kaplan I M, Wadia J S, Dowdy S F (2005) Cationic TAT peptide transduction domain enters cells by macropinocytosis. J Controlled release 102: 247-253). […]
In the mesenchymal stem cell (MSC), an amount of the cell-penetrating peptide (Ara-27) including an amino acid sequence of SEQ ID NO: 2 into the cell was determined for each concentration.

human-derived MSCs = assay: Fluorescence microscopy of peptide entry into cells (FIG. 2); format: cell-based; details: 1 μM, 30 minutes, medium containing 10% serum, heparin washing, trypsin
Procedure: An experiment was conducted in a medium containing 10% serum, and after treatment for 30 minutes at a concentration of 1 μM, fluorescent peptides adhered to the cell surface were removed using a heparin washing method, and then the cell was separated therefrom by treatment with trypsin. FIG. 2 is photographs of cells taken by the fluorescence microscope after separation.

[2] = test system: Human mesenchymal stem cells (human MSCs); assay: Confocal microscopy of intracellular localisation with membrane marker FM-64 (FIG. 3); format: cell-based
Description: Further, in order to determine whether the Ara-27 cell-penetrating peptide is actually present in intracellular nuclei or cytoplasm, the Ara-27 peptide was fluorescently treated, and then analyzed using a confocal microscope. Human mesenchymal stem cells (human MSCs) were placed in a DMEM cell culture medium containing 10% FBS in a 6-well plate. […] Next, a membrane marker (FM-64) was used to examine whether the peptides are actually present inside the cell membrane. The cells were removed with trypsin to allow reagents to be inserted into the cell membrane, and the reagents were treated to perform the analysis. At this time, it can be confirmed that most of peptides were present in cytoplasmic parts inside the cell membranes, and some of the peptides were also present in the nucleus (FIG. 3).

NIH3T3 fibroblast = assay: Cell penetration efficiency of FITC-peptides, heparin and trypsin washing, FACS (FIG. 6); format: cell-based; details: 1 μM
Description: FIG. 6 is a graph showing results of comparing the cell penetration efficiencies of Ara-27, ara-20, R8-Ara-19 and Ara-8 cell-penetrating peptides in a NIH3T3 fibroblast.
as §1
When measuring the cell penetration efficiency, in order to remove each cell-penetrating peptide which may be adhered to the cell membrane surface, a Heparin & Trypsin washing method used in the Kaplan group was applied thereto [Kaplan I M, Wadia J S, Dowdy S F (2005) Cationic TAT peptide transduction domain enters cells by macropinocytosis. J Controlled release 102: 247-253). In summary, in the experiments to be described below, each cell-penetrating peptide was put into a cell growth medium at a concentration of 1 μM, incubated for 30 minutes, and then the cells were washed 3 times with Heparin, followed by separating the cells with trypsin to perform a FACS analysis.
Next, the cell penetration efficiencies of Ara-27 and the cell-penetrating peptides including amino acid sequences of SEQ ID NO: 1 (Ara-20), SEQ ID NO: 3 (R8-Ara-19), and SEQ ID NO: 11 (Ara-8) of the examples in a NIH3T3 fibroblast were compared.

NIH3T3 cell line = assay: Cell penetration efficiency of FITC-labelled p53C, Tat-Ara-19 and ICT-53 (FIG. 7); format: cell-based; details: 1 μM, 1 hour
Procedure: FIG. 7 is a graph showing results of comparing the cell penetration efficiencies of p53C, Tat-ara-19 and ICT-53 peptides.
A p53C peptide having 22 amino acid sequences and Tat-Ara-19 peptide, as well as the ICT-53 peptide, in which the p53C peptide is fused to the Tat-Ara-19 peptide, were synthesized, then fluorescein isothiocyanate (FITC, fluorescent material) was adhered to the C-terminus thereof so as to fluoresce. These peptides were used to examine the cell penetration efficiency for 1 hour at a concentration of 1 μM in a NIH3T3 cell line. […] In this experiment, the penetration efficiency in a situation including serum was also examined.

U2OS cancer cell line = assay: Anti-cancer effect of purified ICT-53 peptide (FIGS. 9 and 10); format: cell-based; details: for each concentration

## Ara-27: cell-penetrating peptide including an amino acid sequence of SEQ ID NO: 2, Arabidopsis thaliana-derived (RNQRKTVRCFRCRQAGHWISDCRLKSK; Ara-27)
[1]; for each concentration
  amount of the peptide introduced per unit cell (fluorescence intensity): increased in proportion to the concentration
human-derived MSCs
  peptides that entered the cells, seen by fluorescence microscope: found across all the cells; also recorded: high fluorescence intensity
[2]; 2 μM, DMEM containing 10% FBS
  location of the peptide in the cell: most of the Ara-27 peptides were present in the cytoplasm
[2]; 5 μM, 18 hours after penetration
  persistence of the peptide in the cell: stably exist therein
[2]; 5 μM, 18 hours after penetration, membrane marker
  location of the peptide in the cell: not only in the cytoplasm but also in the nucleus
NIH3T3 fibroblast; within 30 minutes, environment including serum
  efficiency of penetrance into the cell: ≥ 90%

## RKKRRQRRCFRCRQAGHWISDCRLKSKGSRAHSSHLKSKKGQSTSRHKK (cysteines drawn unpaired) [ICT-53]
NIH3T3 cell line
  cell penetration efficiency (in words): high efficiency
U2OS cancer cell line
  anti-cancer effect, dependence on concentration: in proportion to the concentration

## Tat-Ara-19: cell-penetrating peptide including an amino acid sequence of SEQ ID NO: 4 (RKKRRQRRCFRCRQAGHWISDCRLKSK; Tat-Ara-19)
NIH3T3 cell line
  cell penetration efficiency (in words): high efficiency

## Tat-PTD: Tat-PTD (SEQ ID NO: 12), a well-known cell-penetrating peptide, used as control group (RKKRRQRR; Tat-PTD) [reference compound]
[1]; even at 5 μM
  amount of the peptide introduced per unit cell (fluorescence intensity): remarkably low
human-derived MSCs
  peptides that entered the cells, seen by fluorescence microscope: very rarely found
NIH3T3 fibroblast; NIH3T3 fibroblast, 30 minutes
  cell penetration efficiency (in words): very low level

## p53C: p53C peptide (SEQ ID NO: 5), peptide of a C-terminal region of a p53 protein, 22 amino acids (GSRAHSSHLKSKKGQSTSRHKK; p53C) [reference compound]
NIH3T3 cell line
  cell penetration efficiency (in words): did not penetrate into the cell

— patent US10759839B2, “Cell-penetrating peptide” (NEOREGEN BIOTECH, priority 2016, dated 2020)
